# Experimental data published in ChEMBL document CHEMBL1201862, “PubChem BioAssay data set” (2004).
# Activity calls are given as the source filed them.
# Legend:
# [1] = molecular target: T1, Carboxy-terminal domain RNA polymerase II polypeptide A small phosphatase 1 (Homo sapiens, UniProt Q9GZU7); test: CTDSP1 inhibitors, concentration-response, biochemical, absorbance readout, ultra-high-throughput screen actives (AID 540297); assay type: functional
# T1 sequence (Q9GZU7 whole entry): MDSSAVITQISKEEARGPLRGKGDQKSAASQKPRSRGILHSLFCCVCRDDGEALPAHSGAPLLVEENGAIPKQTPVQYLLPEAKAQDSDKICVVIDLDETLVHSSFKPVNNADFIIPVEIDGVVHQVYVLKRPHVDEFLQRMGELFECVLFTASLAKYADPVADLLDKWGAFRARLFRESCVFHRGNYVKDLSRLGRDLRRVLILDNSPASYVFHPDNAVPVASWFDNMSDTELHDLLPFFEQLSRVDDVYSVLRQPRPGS
# SUMO-activating enzyme [2] = molecular target: T2, SUMO-activating enzyme (Homo sapiens, UniProt Q9UBT2); test: blockers of SAE1/SAE2–UBC9 SUMO transfer – biochemical, HTRF, uHTS, primary screen (AID 2006); assay type: protein-complex assay
# SUMO E1/E2 = SUMO E1/E2 (Homo sapiens, UniProt P63279+Q9UBE0+Q9UBT2); test: SAR analysis of SUMOylation using HTRF in an in-Vitro dose response assay. [Related pubchem assays (depositor defined):AID2006, AID2011, AID2018, AID2069, AID2658]; assay type: functional
# SUMO-activating enzyme [3] = molecular target: T2, SUMO-activating enzyme; test: blockers of UBC9-mediated SUMO conjugation – biochemical, AlphaScreen, SUMOylation inhibitor project, confirmation (AID 2018); assay type: functional
# [4] = molecular target: Lysine-specific demethylase 4C (Homo sapiens, UniProt Q9H3R0); test: inhibition of JMJD2C H3K9me3 demethylation – biochemical, DELFIA europium, cherry-picked samples, dose response (AID 488835); assay type: functional
# [5] = HEK-293T viability loss, compound-treated – cell-based, uHTS hits, cytotoxicity control for B/T-cell NF-kB inhibitor project, dose response (AID 489019); assay type: functional;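 note: IC50 reflects cytotoxicity as loss of cell viability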
# Jurkat = test: blockers of NF-kB activation in T cells – Jurkat, luciferase reporter, luminescence, B- and T-cell, dose response (AID 489004); assay type: functional, cell-based; conditions: Homo sapiens;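 note: NF-kB luciferase reporter Jurkat cells stimulated with PMA plus ionomycin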
# [6] = molecular target: T3, Replicative DNA helicase DnaB (Mycobacterium tuberculosis, UniProt P9WMR3); test: DnaB intein splicing inhibitors, dose response, biochemical, cell-free fluorescence (AID 449749); assay type: functional
# T3 sequence (P9WMR3 whole entry): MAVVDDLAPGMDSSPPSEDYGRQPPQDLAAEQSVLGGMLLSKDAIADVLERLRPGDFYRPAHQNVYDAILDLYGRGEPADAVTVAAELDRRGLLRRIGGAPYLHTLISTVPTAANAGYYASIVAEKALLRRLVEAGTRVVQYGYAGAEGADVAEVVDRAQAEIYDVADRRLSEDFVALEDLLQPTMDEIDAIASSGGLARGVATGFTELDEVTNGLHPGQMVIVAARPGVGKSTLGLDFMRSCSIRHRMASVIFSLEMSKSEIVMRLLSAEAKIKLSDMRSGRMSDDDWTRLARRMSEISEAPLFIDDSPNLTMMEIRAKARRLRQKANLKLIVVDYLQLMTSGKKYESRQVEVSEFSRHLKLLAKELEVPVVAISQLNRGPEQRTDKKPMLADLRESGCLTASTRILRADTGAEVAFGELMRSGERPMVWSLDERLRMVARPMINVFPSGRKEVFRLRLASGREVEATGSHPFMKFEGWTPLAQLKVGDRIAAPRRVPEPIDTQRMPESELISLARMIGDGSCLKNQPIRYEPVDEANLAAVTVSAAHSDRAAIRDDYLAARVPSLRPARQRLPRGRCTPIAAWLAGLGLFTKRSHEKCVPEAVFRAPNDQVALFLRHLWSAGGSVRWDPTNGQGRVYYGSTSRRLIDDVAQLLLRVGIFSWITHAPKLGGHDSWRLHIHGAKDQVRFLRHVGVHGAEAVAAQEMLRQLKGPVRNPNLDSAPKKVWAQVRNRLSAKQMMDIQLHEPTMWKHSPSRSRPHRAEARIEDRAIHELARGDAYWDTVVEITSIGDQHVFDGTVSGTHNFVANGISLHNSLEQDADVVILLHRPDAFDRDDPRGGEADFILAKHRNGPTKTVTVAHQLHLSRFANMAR
# HEK293 [7] = test: cells; conditions: Homo sapiens
# Hexokinase HKDC1 = molecular target: T4, Hexokinase HKDC1 (Homo sapiens, UniProt Q2TB90); test: inhibition of HKDC1 glucose phosphorylation – biochemical, W721R variant, dose response (AID 504729); assay type: functional
# T4 sequence (Q2TB90 whole entry): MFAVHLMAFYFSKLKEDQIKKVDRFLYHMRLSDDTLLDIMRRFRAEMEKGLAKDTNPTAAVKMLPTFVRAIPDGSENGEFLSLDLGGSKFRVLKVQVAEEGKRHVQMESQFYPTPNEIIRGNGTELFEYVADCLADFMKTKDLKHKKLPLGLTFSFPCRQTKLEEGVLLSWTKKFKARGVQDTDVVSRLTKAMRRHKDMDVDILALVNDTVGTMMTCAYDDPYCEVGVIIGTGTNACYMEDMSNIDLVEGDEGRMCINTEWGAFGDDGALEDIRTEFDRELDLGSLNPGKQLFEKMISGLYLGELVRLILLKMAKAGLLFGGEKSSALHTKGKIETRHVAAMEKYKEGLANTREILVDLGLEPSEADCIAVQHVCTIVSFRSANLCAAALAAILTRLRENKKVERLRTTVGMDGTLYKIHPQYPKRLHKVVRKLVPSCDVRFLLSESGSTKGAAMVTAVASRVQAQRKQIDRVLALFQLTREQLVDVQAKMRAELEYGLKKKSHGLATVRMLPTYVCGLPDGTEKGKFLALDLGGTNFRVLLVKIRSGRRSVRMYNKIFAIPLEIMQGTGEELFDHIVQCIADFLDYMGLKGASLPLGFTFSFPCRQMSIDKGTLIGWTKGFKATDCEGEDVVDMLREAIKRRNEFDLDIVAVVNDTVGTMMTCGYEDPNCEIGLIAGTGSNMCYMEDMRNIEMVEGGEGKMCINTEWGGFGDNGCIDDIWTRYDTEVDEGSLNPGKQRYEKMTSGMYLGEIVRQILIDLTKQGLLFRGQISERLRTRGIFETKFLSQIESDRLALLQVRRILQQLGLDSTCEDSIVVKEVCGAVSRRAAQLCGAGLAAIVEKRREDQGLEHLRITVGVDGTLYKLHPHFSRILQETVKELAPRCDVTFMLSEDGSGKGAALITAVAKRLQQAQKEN
# [8] = molecular target: T5, Microphthalmia-associated transcription factor (Homo sapiens, UniProt O75030); test: reducers of TRPM1 reporter luminescence, concentration series – cell-based, SK-MEL-5, cherry-picked, set 3, MITF inhibitor project, dose response (AID 493073); assay type: functional;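 note: SK-MEL-5 melanoma cells with luciferase driven by the MITF target TRPM1 promoter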
# T5 sequence (O75030 whole entry): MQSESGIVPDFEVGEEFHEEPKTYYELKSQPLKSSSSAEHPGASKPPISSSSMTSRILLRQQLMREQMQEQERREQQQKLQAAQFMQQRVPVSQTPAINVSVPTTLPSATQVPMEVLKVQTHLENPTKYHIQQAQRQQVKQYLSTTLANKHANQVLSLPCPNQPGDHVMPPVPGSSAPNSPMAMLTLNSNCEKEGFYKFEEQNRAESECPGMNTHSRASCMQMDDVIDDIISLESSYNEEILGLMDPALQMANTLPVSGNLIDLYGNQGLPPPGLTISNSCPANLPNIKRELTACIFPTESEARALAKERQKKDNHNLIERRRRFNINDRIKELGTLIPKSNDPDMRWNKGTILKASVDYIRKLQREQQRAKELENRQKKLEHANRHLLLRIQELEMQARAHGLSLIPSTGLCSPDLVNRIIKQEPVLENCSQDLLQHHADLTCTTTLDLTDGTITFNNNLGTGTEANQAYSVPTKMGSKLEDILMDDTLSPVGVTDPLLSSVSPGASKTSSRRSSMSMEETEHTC
# cells [9] = assay type: functional, cell-based
# cells [10] = assay type: functional, cell-based; remark: listed apart in the source
# Protein RecA = molecular target: T6, Protein RecA (Mycobacterium tuberculosis, UniProt P9WHJ3); test: Fluorescence Cell-Free Homogeneous Dose Retest to Identify Inhibitors of RecA-Intein Splicing Activity. [Related pubchem assays (depositor defined):AID2097, AID2223, AID489010, AID492950]; assay type: functional
# T6 sequence (P9WHJ3 whole entry): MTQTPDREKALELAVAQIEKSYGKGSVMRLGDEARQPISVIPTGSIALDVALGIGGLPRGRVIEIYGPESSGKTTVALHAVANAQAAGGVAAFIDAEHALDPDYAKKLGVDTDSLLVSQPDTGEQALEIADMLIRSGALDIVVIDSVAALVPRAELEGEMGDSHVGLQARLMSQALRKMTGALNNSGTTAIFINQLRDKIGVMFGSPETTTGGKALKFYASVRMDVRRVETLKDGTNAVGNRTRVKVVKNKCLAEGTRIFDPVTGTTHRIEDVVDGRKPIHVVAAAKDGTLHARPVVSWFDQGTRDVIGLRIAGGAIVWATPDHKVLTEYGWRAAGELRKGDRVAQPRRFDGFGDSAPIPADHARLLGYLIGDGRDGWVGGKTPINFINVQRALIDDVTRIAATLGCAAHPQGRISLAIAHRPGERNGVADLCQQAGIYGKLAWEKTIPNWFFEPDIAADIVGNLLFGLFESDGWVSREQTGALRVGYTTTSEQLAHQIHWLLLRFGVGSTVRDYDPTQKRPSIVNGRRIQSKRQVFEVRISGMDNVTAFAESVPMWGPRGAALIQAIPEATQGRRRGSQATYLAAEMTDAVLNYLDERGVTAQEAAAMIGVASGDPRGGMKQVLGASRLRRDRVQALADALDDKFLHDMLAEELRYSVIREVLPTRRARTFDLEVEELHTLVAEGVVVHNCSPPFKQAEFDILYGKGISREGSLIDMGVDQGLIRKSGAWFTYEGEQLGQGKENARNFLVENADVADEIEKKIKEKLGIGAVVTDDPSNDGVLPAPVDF
# HEK293 [11] = test: cells; conditions: Homo sapiens; remark: listed apart in the source
# [12] = molecular target: SWI/SNF-related matrix-associated actin-dependent regulator of chromatin subfamily A member 2 (Homo sapiens, UniProt P51531); test: Luminescence-based cell-based high throughput dose response assay to identify activators of the function of SWI/SNF related, matrix associated, actin dependent regulator of chromatin, subfamily a, member 2 (SMARCA2, BRM).; assay type: functional
# [13] = Counterscreen for activators of the function of SWI/SNF related, matrix associated, actin dependent regulator of chromatin, subfamily a, member 2 (SMARCA2, BRM): Luminescence-based cell-based high throughput dose response assay to identify non-selective compounds using the VP16 reporter assay.; assay type: functional
# T2 sequence (Q9UBE0 whole entry): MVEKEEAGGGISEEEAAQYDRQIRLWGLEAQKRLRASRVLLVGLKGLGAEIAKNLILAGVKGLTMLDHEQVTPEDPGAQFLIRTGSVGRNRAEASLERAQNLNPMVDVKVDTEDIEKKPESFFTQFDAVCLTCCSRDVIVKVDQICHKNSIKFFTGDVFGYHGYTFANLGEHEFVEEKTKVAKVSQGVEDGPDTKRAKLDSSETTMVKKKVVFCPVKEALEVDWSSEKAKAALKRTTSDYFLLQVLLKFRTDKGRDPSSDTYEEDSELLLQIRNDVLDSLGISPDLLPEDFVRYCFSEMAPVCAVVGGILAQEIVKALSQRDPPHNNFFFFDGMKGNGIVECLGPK
# T2 sequence (Q9UBT2 whole entry): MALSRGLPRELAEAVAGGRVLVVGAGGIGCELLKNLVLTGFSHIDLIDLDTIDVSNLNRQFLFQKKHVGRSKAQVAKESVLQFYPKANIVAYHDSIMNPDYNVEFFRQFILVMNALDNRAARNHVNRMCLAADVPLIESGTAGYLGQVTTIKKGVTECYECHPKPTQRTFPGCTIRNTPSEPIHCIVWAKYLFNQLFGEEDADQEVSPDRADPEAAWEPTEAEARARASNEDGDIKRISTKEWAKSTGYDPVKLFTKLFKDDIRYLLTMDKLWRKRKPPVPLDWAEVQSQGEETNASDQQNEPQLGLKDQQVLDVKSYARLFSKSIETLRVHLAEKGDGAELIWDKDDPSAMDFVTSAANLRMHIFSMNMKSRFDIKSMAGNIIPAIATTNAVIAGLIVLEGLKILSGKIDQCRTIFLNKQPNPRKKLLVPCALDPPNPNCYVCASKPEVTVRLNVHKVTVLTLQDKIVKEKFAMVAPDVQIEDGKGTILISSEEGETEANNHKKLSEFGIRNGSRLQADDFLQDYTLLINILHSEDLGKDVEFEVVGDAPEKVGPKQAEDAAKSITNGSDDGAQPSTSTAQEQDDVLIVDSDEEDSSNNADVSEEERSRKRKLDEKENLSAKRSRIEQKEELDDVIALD
# Lysine-specific demethylase 4C, sequence (Q9H3R0 whole entry): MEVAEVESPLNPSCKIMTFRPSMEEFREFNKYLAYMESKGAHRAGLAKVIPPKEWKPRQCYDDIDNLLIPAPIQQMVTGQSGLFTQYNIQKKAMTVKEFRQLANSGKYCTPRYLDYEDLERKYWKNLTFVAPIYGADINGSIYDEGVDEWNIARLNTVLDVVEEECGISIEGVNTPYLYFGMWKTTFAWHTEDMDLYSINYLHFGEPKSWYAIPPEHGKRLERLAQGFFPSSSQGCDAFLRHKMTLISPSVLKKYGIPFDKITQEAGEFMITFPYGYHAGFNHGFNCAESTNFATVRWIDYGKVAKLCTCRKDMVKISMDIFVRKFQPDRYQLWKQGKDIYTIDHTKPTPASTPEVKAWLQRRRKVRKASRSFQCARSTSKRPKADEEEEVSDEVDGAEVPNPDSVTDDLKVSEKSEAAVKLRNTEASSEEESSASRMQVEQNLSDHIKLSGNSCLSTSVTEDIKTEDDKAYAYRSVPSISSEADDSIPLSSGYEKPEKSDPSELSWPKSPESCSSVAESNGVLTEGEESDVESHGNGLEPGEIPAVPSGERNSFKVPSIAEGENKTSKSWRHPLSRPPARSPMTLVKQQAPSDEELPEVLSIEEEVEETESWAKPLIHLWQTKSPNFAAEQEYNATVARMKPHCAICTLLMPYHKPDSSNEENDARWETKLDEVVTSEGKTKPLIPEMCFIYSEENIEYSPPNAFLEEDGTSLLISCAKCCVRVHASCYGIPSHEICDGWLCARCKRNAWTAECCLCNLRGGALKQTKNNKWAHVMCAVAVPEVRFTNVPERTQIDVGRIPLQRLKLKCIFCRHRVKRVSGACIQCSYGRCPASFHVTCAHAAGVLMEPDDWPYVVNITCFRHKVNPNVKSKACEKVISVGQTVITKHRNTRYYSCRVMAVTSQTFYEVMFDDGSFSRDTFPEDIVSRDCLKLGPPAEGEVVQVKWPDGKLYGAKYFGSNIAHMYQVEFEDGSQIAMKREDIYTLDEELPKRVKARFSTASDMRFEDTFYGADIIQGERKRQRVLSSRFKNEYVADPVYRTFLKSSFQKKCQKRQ
# SUMO E1/E2, sequence (Q9UBE0 whole entry): as the sequence (Q9UBE0 whole entry) above
# SUMO E1/E2, sequence (Q9UBT2 whole entry): as the sequence (Q9UBT2 whole entry) above
# SUMO E1/E2, sequence (P63279 whole entry): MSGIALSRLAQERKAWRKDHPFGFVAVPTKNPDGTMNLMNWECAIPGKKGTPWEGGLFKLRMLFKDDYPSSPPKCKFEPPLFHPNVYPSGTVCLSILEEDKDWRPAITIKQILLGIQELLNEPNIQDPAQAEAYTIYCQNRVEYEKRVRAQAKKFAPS
# SWI/SNF-related matrix-associated actin-dependent regulator of chromatin subfamily A member 2, sequence (P51531 whole entry): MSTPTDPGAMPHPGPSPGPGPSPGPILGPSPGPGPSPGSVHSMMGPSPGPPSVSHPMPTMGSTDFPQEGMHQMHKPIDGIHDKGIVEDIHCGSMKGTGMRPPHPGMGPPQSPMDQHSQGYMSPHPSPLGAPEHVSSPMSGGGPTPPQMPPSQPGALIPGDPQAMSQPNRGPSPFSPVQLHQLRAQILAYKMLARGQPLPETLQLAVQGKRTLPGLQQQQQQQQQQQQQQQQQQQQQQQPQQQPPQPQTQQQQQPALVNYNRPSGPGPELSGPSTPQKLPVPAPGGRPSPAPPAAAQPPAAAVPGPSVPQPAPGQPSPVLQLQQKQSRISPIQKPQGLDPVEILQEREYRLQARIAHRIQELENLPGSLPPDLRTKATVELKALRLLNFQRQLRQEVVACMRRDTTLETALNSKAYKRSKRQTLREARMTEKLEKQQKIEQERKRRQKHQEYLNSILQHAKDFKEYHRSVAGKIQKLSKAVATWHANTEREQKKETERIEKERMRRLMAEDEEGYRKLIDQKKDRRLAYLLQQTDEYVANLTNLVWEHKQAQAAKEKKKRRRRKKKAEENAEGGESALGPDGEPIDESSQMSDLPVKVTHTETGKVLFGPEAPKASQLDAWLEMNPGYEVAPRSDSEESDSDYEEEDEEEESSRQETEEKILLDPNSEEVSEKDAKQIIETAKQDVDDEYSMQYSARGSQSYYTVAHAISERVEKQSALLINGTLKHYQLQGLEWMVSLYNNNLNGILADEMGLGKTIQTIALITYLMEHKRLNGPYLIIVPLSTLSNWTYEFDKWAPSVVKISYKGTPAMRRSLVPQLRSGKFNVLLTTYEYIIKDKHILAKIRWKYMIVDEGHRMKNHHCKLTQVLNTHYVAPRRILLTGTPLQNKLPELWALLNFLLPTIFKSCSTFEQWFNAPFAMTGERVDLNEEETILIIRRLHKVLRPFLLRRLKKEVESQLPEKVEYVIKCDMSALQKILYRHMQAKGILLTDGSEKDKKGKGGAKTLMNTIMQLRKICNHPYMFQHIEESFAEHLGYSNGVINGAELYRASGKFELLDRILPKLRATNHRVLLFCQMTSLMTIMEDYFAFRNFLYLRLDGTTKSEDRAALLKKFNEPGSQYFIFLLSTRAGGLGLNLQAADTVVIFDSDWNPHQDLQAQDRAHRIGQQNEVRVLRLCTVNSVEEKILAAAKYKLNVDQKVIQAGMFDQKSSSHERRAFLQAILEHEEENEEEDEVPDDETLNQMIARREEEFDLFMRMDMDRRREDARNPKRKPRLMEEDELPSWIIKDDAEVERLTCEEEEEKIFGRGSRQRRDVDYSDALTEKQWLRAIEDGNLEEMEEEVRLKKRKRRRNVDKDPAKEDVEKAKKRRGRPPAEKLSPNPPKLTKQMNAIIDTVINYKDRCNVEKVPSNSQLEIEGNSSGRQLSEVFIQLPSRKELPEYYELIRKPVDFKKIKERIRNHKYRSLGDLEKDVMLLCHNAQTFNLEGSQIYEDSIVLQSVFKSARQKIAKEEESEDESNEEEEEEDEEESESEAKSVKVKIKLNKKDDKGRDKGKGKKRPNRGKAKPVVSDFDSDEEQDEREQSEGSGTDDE
smiles,measurement,setting,value
O=C(N=Nc1c(O)[nH]c2ccc([N+](=O)[O-])cc12)c1ccccc1Cl,IC50,[1],6.44 µM (active)
same,IC50,SUMO-activating enzyme [2],20.4 µM (active)
same,IC50,SUMO E1/E2,94.4 µM (active)
same,IC50,SUMO-activating enzyme [3],7.02 µM (active)
O=C1NC(=O)C(C(CC(=O)c2ccccc2)c2ccccc2)C(=O)N1 (centres undefined),AC50,[4],7.62 µM (active)
CC(C)Cc1cc(C(C)(C)C)ccc1OC(=S)N(C)C,IC50,[5],> 80 µM (inactive)
same,IC50,Jurkat,> 80 µM (inactive)
COc1ccc(-n2c(C)cc(C(=O)CCl)c2C)cc1,AC50,[6],22.9 µM (active)
same,EC50,HEK293 [7],> 59.7 µM (inactive)
same,IC50,Hexokinase HKDC1,27 µM (inactive)
same,AC50,[8],6.44 µM (active)
same,EC50,cells [9],> 350 µM (not active)
same,EC50,cells [10],> 350 µM (not active)
same,EC50,Protein RecA,19 µM (active)
same,EC50,HEK293 [11],> 59.7 µM (inactive)
O=C1C2C3C=CC(C4CC34)C2C(=O)N1/N=C/c1ccc([N+](=O)[O-])o1 (centres undefined),EC50,HEK293 [7],> 59.6 µM (inactive)
same,EC50,[12],> 91.1 µM (inactive)
same,EC50,[13],> 91.1 µM (inactive)
same,EC50,HEK293 [11],> 59.6 µM (inactive)
